Experiment [1] in a line: Effective concentration that inhibits growth of Trypanosoma cruzi by 50% was reported. The format is functional.
For the next experiment, the system named is Trypanosoma cruzi. Put plainly: Inhibition of the proliferation of epimastigote form of Trypanosoma cruzi was determined at 10 e-5 M. The experiment is classed as functional.
In the next experiment the test system is Vero. Put plainly: Effective concentration to inhibit the proliferation of amastigote form of the parasite grown on mammalian (Vero) cells. The format is functional, cell-based, Chlorocebus sabaeus.

A word on the EC50: it is the concentration that produces a half-maximal response. Higher therefore signals lower potency in that assay. Usually inhibition stands for the share of the control response that was lost under treatment. Higher therefore signals a strong effect.

Regarding `Clc1ccccc1C(c1ccccc1)(c1ccccc1)n1ccnc1` [CLOTRIMAZOLE], the EC50 in experiment [1] is 3000 nM.
For the compound “RuCl2(clotrimazole)2 [listing 1 of 2 here]”, in the experiment on Trypanosoma cruzi, the inhibition is 90%.
On to “RuCl2(clotrimazole)2 [listing 2 of 2 here]”, for which the EC50 with Vero amounted to 5 nM; in experiment [1], 100 nM.

Source of the values: ChEMBL document CHEMBL1126737, “Toward a novel metal-based chemotherapy against tropical diseases. 1. Enhancement of the efficacy of clotrimazole against Trypanosoma cruzi by complexation to ruthenium in RuCl2(clotrimazole)2” (J Med Chem, 1993).
